Results: patent US20190233884A1 (University of Southern California, priority 2016, published 2019)

System: patients with refractory metastatic colorectal cancer (mCRC)
Test: PFS, OS and disease control in the training (evaluation) cohort of refractory mCRC patients receiving TAS-102 (n=52, Japan), by baseline characteristics, SNP genotype and toxicity
Format: in vivo, human
Settings: for OS (median) / PFS (median): evaluation cohort (JPN TAS-102); for Disease Control CR/PR/SD, patients n (%) / Median OS (95% CI) / Median PFS (95% CI) / PD, patients n (%) / HR OS (95% CI) / HR PFS (95% CI) / Disease Control Rate SD, patients n (%): evaluation cohort
Description: All patients underwent the treatment in salvage-line setting. […]
(§1) Genomic DNA was extracted from peripheral whole blood in patients of all cohorts using the QIAmp Kit (Qiagen, Valencia, Calif., USA) according to the manufacturer's protocol (www.qiagen.com). The candidate SNPs were genotyped using PCR-based direct DNA sequence analysis by ABI 3100A Capillary Genetic Analyzer and Sequencing Scanner v1.0 (Applied Biosystems). Amplification of extracted DNA was carried out using both forward and reverse primers for each gene polymorphism as shown in Table 1. […] The investigators analyzing SNPs were blinded to the clinical data of the study patients.
The primary endpoint in this study was progression-free survival (PFS), and the secondary endpoints were overall survival (OS) and disease control rate (DCR). PFS was calculated from the date of starting treatment to the first observation of disease progression or death from any cause. If a patient had no disease progression or death, PFS was censored at the date of last follow up. OS was calculated from the date of starting treatment until the date of death from any cause or the date of the last follow-up, at which point OS was censored. The disease control rate (DCR) was defined as the proportion of patients who achieved a stable disease (SD) or […] according to RECISTv1.1. Chi-square test was used to examine the difference in baseline patient characteristics among the three cohorts. Allelic distribution of all SNPs by ethnicity for deviation from Hardy-Weinberg equilibrium and the allelic frequencies of SNPs were tested using the Chi-square tests with one degree of freedom. The associations between candidate SNPs and disease control, and toxicities were examined using contingency tables and Fisher's exact test. The associations of SNPs with PFS and OS were analysed using Kaplan-Meier curves and the log-rank test. Because the true mode of inheritance of candidate SNPs was not established yet, a codominant or dominant genetic model if appropriate was considered.
All patients underwent the treatment in salvage-line setting. […] In all patients, adverse events were graded according to the Common Terminology Criteria for Adverse Events, version 4.0. […]
as §1, with “tested” for “genotyped”, “Biosystems).” for “Biosystems). Amplification of extracted DNA was carried out using both forward and reverse primers for each gene polymorphism as shown in Table 1.”, “data.” for “data of the study patients.”
The primary endpoint in this study was progression-free survival (PFS), and the secondary endpoints were overall survival (OS) and disease control rate (DCR).

[1] = PCNA rs25406 G/A vs G/G, univariate
[2] = Pin1 rs2233678 G/C vs G/G, multivariable
[3] = Pin1 rs2233678 G/C vs G/G, univariate
[4] = Pin1 rs2233679 Any T vs C/C, multivariable
[5] = Pin1 rs2233679 Any T vs C/C, univariate
[6] = Pin1 rs2233679 C/T vs C/C, multivariable
[7] = Pin1 rs2233679 C/T vs C/C, univariate
[8] = Pin1 rs2233679 T/T vs C/C, multivariable
[9] = Pin1 rs2233679 T/T vs C/C, univariate
[10] = RAD51 rs1801320 G/C vs G/G, multivariable
[11] = RAD51 rs1801320 G/C vs G/G, univariate
[12] = ATM rs609429 Any G vs C/C (Ref.), multivariable
[13] = ATM rs609429 Any G vs C/C (Ref.), univariate
[14] = ATM rs609429 G/C vs C/C (Ref.), multivariable
[15] = ATM rs609429 G/C vs C/C (Ref.), univariate
[16] = ATM rs609429 G/G vs C/C (Ref.), multivariable
[17] = ATM rs609429 G/G vs C/C (Ref.), univariate

Trifluridine/tipiracil [TAS-102] was tested, and the “OS HR (95% CI)†” value [1] was 0.62 (0.22, 1.71), the “PFS HR (95% CI) †” value [1] was 0.68 (0.32, 1.41) and the “OS median, months (95% CI)” value (PCNA rs25406 G/G) was 8.3 (2.7, 14.8+) months. For the same substance, the “PFS median, months (95% CI)” value (PCNA rs25406 G/G) was 2.1 (1.6, 4.2) months, the “OS median, months (95% CI)” value (Pin1 rs2233678 G/C) was 4.2 (2.7, 5.7+) months and the “PFS median, months (95% CI)” value (Pin1 rs2233678 G/C) was 1.7 (1.6, 1.8+) months. For the same substance, the “OS HR (95% CI)‡” value [2] was 7.21 (1.47, 35.33), the “PFS HR (95% CI) ‡” value [2] was 5.08 (1.11, 23.23) and the “OS HR (95% CI)†” value [3] was 4.23 (0.92, 19.42). For the same substance, the “PFS HR (95% CI) †” value [3] was 3.66 (0.79, 16.99), the “OS median, months (95% CI)” value (Pin1 rs2233678 G/G) was 8.3 (6.3, 15.6+) months and the “PFS median, months (95% CI)” value (Pin1 rs2233678 G/G) was 2.9 (2.1, 3.4) months. For the same substance, the “OS median, months (95% CI)” value (Pin1 rs2233679 Any T) was 8.3 (6.3, 14.8+) months, the “PFS median, months (95% CI)” value (Pin1 rs2233679 Any T) was 3.3 (1.8, 3.7) months and the “OS HR (95% CI)‡” value [4] was 1.05 (0.43, 2.54). For the same substance, the “PFS HR (95% CI) ‡” value [4] was 1.01 (0.53, 1.94), the “OS HR (95% CI)†” value [5] was 0.95 (0.40, 2.26) and the “PFS HR (95% CI) †” value [5] was 0.84 (0.45, 1.57). For the same substance, the “OS median, months (95% CI)” value (Pin1 rs2233679 C/C) was 7.2 (4.9, 15.6+) months, the “PFS median, months (95% CI)” value (Pin1 rs2233679 C/C) was 2.3 (1.8, 3.4) months and the “OS median, months (95% CI)” value (Pin1 rs2233679 C/T) was 8.3 (6.3, 12.4+) months. The “PFS median, months (95% CI)” value (Pin1 rs2233679 C/T) was 2.9 (1.8, 3.7) months, the “OS HR (95% CI)‡” value [6] was 1.04 (0.41, 2.64) and the “PFS HR (95% CI) ‡” value [6] was 1.03 (0.52, 2.03). The “OS HR (95% CI)†” value [7] was 1.05 (0.41, 2.65), the “PFS HR (95% CI) †” value [7] was 0.90 (0.46, 1.75) and the “OS median, months (95% CI)” value (Pin1 rs2233679 T/T) was 8.1 (3.1, 14.8+) months. For the same substance, the “PFS median, months (95% CI)” value (Pin1 rs2233679 T/T) was 3.4 (1.6, 4.6) months, the “OS HR (95% CI)‡” value [8] was 1.08 (0.24, 4.91) and the “PFS HR (95% CI) ‡” value [8] was 0.95 (0.34, 2.67). For the same substance, the “OS HR (95% CI)†” value [9] was 0.74 (0.20, 2.75), the “PFS HR (95% CI) †” value [9] was 0.70 (0.28, 1.79) and the “OS median, months (95% CI)” value (RAD51 rs1801320 G/C) was 6.3 (1.4, 8.4+) months. For the same substance, the “PFS median, months (95% CI)” value (RAD51 rs1801320 G/C) was 3.2 (0.9, 3.4) months, the “OS HR (95% CI)‡” value [10] was 2.28 (0.81, 6.48) and the “PFS HR (95% CI) ‡” value [10] was 1.34 (0.60, 3.00). For the same substance, the “OS HR (95% CI)†” value [11] was 2.19 (0.78, 6.14), the “PFS HR (95% CI) †” value [11] was 1.57 (0.70, 3.50) and the “OS median, months (95% CI)” value (RAD51 rs1801320 G/G) was 8.3 (5.7, 15.6+) months. For the same substance, the “PFS median, months (95% CI)” value (RAD51 rs1801320 G/G) was 2.5 (2.0, 4.1) months, the “PFS” value (TAS-102 cohort n=52, combined hENT1 and OCT2/MATE1 variants: poor (11)) was 47.0 days and the “PFS” value (combined hENT1 and OCT2/MATE1 analysis: overall (52)) was 80 days. For the same substance, the “PFS” value (combined hENT1 and OCT2/MATE1 variants: excellent (21)) was 104.0 days, the “PFS” value (combined hENT1 and OCT2/MATE1 variants: fair (16)) was 62.0 days and the “PFS” value (combined hENT1 and OCT2/MATE1 variants: good (4)) was 80 days. The “OS (median)” value (ATM rs609429 C/C (n=14)) was 4.4 months, the “OS (median)” value (ATM rs609429 any G allele (G/C or G/G, n=38)) was 8.7 months and the “PFS (median)” value (XRCC3 rs861539 G/A (n=17)) was 3.8 months. For the same substance, the “PFS (median)” value (XRCC3 rs861539 G/G (n=35)) was 2.3 months, the “Disease Control CR/PR/SD, patients n (%)” value (ATM rs609429 Any G) was 10 (29%) and the “Median OS (95% CI)” value (ATM rs609429 Any G) was 8.7 (6.3, 15.6+) months. For the same substance, the “Median PFS (95% CI)” value (ATM rs609429 Any G) was 2.7 (2.1, 3.4) months, the “PD, patients n (%)” value (ATM rs609429 Any G) was 25 (71%) and the “HR OS (95% CI)” value [12] was 0.24 (0.07, 0.80). The “HR PFS (95% CI)” value [12] was 1.37 (0.57, 3.26), the “HR OS (95% CI)” value [13] was 0.37 (0.14, 0.99) and the “HR PFS (95% CI)” value [13] was 1.53 (0.70, 3.35). For the same substance, the “Disease Control CR/PR/SD, patients n (%)” value (ATM rs609429 C/C) was 5 (45%), the “Median OS (95% CI)” value (ATM rs609429 C/C) was 4.4 (3.1, 8.3+) months and the “Median PFS (95% CI)” value (ATM rs609429 C/C) was 3.3 (1.6, 6.0+) months. For the same substance, the “PD, patients n (%)” value (ATM rs609429 C/C) was 6 (55%), the “Disease Control CR/PR/SD, patients n (%)” value (ATM rs609429 G/C) was 8 (32%) and the “Median OS (95% CI)” value (ATM rs609429 G/C) was 12.4 (6.3, 15.6+) months. For the same substance, the “Median PFS (95% CI)” value (ATM rs609429 G/C) was 2.9 (1.8, 3.4) months, the “PD, patients n (%)” value (ATM rs609429 G/C) was 17 (68%) and the “HR OS (95% CI)” value [14] was 0.19 (0.05, 0.68). The “HR PFS (95% CI)” value [14] was 1.30 (0.53, 3.19), the “HR OS (95% CI)” value [15] was 0.32 (0.11, 0.91) and the “HR PFS (95% CI)” value [15] was 1.53 (0.68, 3.43). For the same substance, the “Disease Control CR/PR/SD, patients n (%)” value (ATM rs609429 G/G) was 2 (20%), the “Median OS (95% CI)” value (ATM rs609429 G/G) was 8.7 (1.2, 14.8+) months and the “Median PFS (95% CI)” value (ATM rs609429 G/G) was 2.6 (1.2, 4.1) months. For the same substance, the “PD, patients n (%)” value (ATM rs609429 G/G) was 8 (80%), the “HR OS (95% CI)” value [16] was 0.39 (0.10, 1.54) and the “HR PFS (95% CI)” value [16] was 1.56 (0.56, 4.37). The “HR OS (95% CI)” value [17] was 0.52 (0.16, 1.73), the “HR PFS (95% CI)” value [17] was 1.55 (0.59, 4.04) and the “Disease Control Rate SD, patients n (%)” value (ATR rs2227928 A/A) was 3 (20%). For the same substance, the “PD, patients n (%)” value (ATR rs2227928 A/A) was 12 (80%), the “Disease Control Rate SD, patients n (%)” value (ATR rs2227928 A/G) was 7 (32%) and the “PD, patients n (%)” value (ATR rs2227928 A/G) was 15 (68%). The “Disease Control Rate SD, patients n (%)” value (ATR rs2227928 Any G) was 12 (39%), the “PD, patients n (%)” value (ATR rs2227928 Any G) was 19 (61%) and the “Disease Control Rate SD, patients n (%)” value (ATR rs2227928 G/G) was 5 (56%). The “PD, patients n (%)” value (ATR rs2227928 G/G) was 4 (44%), the “Disease Control Rate SD, patients n (%)” value (BRCA1 rs16941 Any C) was 8 (30%) and the “PD, patients n (%)” value (BRCA1 rs16941 Any C) was 19 (70%). The “Disease Control Rate SD, patients n (%)” value (BRCA1 rs16941 C/C) was 1 (20%), the “PD, patients n (%)” value (BRCA1 rs16941 C/C) was 4 (80%) and the “Disease Control Rate SD, patients n (%)” value (BRCA1 rs16941 T/C) was 7 (32%).
